Results on 17 molecules are retold here after publication PMC11593696, “Discovery of Potent Benzothiazole Inhibitors of Oxidoreductase NQO2, a Target for Inflammation and Cancer” (International Journal of Molecular Sciences, 2024).

In one data set the target is T1, recombinant human NQO2 (Homo sapiens, UniProt P16083).
T1 sequence (P16083 1-231): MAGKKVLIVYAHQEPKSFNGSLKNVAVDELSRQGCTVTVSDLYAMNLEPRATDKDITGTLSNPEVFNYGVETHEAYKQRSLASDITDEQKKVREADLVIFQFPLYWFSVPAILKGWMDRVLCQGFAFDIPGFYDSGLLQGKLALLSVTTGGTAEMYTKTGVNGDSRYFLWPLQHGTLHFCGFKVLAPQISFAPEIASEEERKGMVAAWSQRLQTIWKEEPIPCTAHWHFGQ
Put plainly: NQO2 enzyme inhibition assay (DCPIP substrate, NRH or EPR co-substrate). It is filed as biochemical. On the procedure:
In this assay, dichlorophenolindophenol (DCPIP) was used as a substrate for NQO2. NRH (SI or EP0152R) was used as the co-substrate for the enzyme.
The NQO2 enzyme assay was carried out using a […] GO spectrophotometer by measuring the absorbance of DCPIP at 600 nm. NRH [31] or EPR were used as co-substrates. The experiment was performed using a 96-well plate with a […] final volume using phosphate buffer (50 mM, pH 7.4). The final concentrations were DCPIP 40 µM and NRH or EPR 200 µM. The final enzyme concentration was 100 ng. The assay was performed at 37 °C and initiated through the addition of NQO2. The initial rates of the enzyme reactions were calculated from the curve by taking the initial slopes of the reactions using the formula (ΔAb/ΔTime). The assay of inhibitors was carried out using the same assay conditions. […] Each experiment was performed in triplicate. Rates were converted to the percentage of enzyme activity, and IC50 values were calculated using GraphPad Prism 7.03 software using the non-linear regression function. IC50 values were determined as a 50% decrease in NQO2 activity.

For the next data set, the target named is NQO2. The note with it: read-out: dissociation constant; cited from earlier work.
The mark [1] stands for this setting: inhibition of NQO2, DCPIP 40 µM, NRH or EPR 200 µM, phosphate buffer pH 7.4, 37 °C, triplicate, read-out: IC50 (µM) ± SD.
[2] abbreviates: DCPIP substrate, NRH co-substrate, read-out: IC50 for inhibition of NQO2.

What is called IC50 is the concentration at which inhibition is half-maximal. Broadly, the melting point is the temperature, or range, at which the solid turns liquid.

Structures are written as SMILES. Read-outs that look alike come from different tables or passages of the source. Some results are limits rather than exact numbers.

As for `COc1cc(-c2nc3ccc(Cl)cc3s2)cc(OC)c1OC` [Compound 43, 6-Chloro-2-(3,4,5-trimethoxyphenyl)benzo[d]thiazole], the melting point is 173 to 174 °C. Also, at recombinant human NQO2 (setting [1]), the IC50 was 0.773 ± 0.016 µM.
`COc1ccc(OC)c(-c2nc3ccc(F)cc3s2)c1` [Compound 29, 2-(2,5-Dimethoxyphenyl)-6-fluorobenzo[d]thiazole] returned a melting point of 105 to 107 °C. For the same molecule, the IC50 at recombinant human NQO2 (setting [2]) is 2.06 µM. Moreover, at recombinant human NQO2 (setting [1]), the half-inhibitory concentration (IC50) was determined as 2.06 ± 0.01 µM.
Regarding `COc1cc(OC)cc(-c2nc3ccc(OC)cc3s2)c1` [Compound 3, 2-(3,5-Dimethoxyphenyl)-6-methoxybenzo[d]thiazole], the melting point was in the range of 121 to 123 °C. Besides, the IC50 at recombinant human NQO2 (setting [2]) stood at 0.108 µM. Also, at recombinant human NQO2 (setting [1]), the IC50 came to 0.108 ± 0.012 µM. For the same molecule, the “reduction in potency relative to compound 40” value at recombinant human NQO2 (removal of the 4-OMe or the 5-OMe from 40) amounted to 2 fold.
For `COc1cc(-c2nc3ccc(NC(=O)c4ccccc4)cc3s2)cc(OC)c1OC` [Compound 50, N-(2-(3,4,5-Trimethoxyphenyl)benzo[d]thiazol-6-yl)benzamide], the melting point was in the range of 205 to 207 °C. Also, the half-maximal inhibitory concentration (IC50) at recombinant human NQO2 (setting [2]) came out at 3.17 µM. Besides, the concentration for half-maximal inhibition (IC50) at recombinant human NQO2 (setting [1]) turned out to be 3.17 ± 0.031 µM.
In turn, `COc1cc(OC)cc(-c2nc3ccc([N+](=O)[O-])cc3s2)c1` [Compound 10, 2-(3,5-Dimethoxyphenyl)-6-nitrobenzo[d]thiazole] yielded a melting point of 199 to 200 °C. Moreover, the IC50 on recombinant human NQO2 (setting [1]) turned out to be 93.44 ± 0.02 µM.
Turning to `COc1cccc(-c2nc3ccc(F)cc3s2)c1` [Compound 53, 6-Fluoro-2-(3-methoxyphenyl)benzo[d]thiazole], the melting point lay within 103 to 105 °C. Besides, on recombinant human NQO2 (setting [2]), the IC50 was 0.908 µM. Besides, at recombinant human NQO2 (setting [1]), the IC50 stood at 0.908 ± 0.02 µM.
Consider `COc1cc(OC)cc(-c2nc3ccc(F)cc3s2)c1` [Compound 8, 2-(3,5-Dimethoxyphenyl)-6-fluorobenzo[d]thiazole], for which the melting point lay in the range of 138 to 140 °C. Moreover, the concentration for half-maximal inhibition (IC50) at recombinant human NQO2 (setting [1]) was more than 100 µM.
With `Fc1cccc(-c2nc3ccc(F)cc3s2)c1` [Compound 55, 6-Fluoro-2-(3-fluorophenyl)benzo[d]thiazole], the melting point lay in the range of 111 to 112 °C. Besides, the IC50 at recombinant human NQO2 (setting [2]) amounted to 52.6 µM. Also, the half-maximal inhibitory concentration (IC50) on recombinant human NQO2 (setting [1]) came out at 52.55 ± 0.06 µM.
The like results for `COc1cc(-c2nc3ccc(NC(C)=O)cc3s2)cc(OC)c1OC` [Compound 49, N-(2-(3,4,5-Trimethoxyphenyl)benzo[d]thiazol-6-yl)acetamide] were, in that order, 208 to 209 °C, 0.031 µM and 0.031 ± 0.008 µM.
In turn, `COc1cc(OC)cc(-c2nc3ccc(Br)cc3s2)c1` [Compound 4, 6-Bromo-2-(3,5-dimethoxyphenyl)benzo[d]thiazole] showed a melting point of 164 to 165 °C. At recombinant human NQO2 (setting [1]), the half-maximal inhibitory concentration (IC50) is more than 100 µM.
As to `COc1cc(OC)cc(-c2nc3ccc(NC(C)=O)cc3s2)c1` [Compound 12, N-(2-(3,5-Dimethoxyphenyl)benzo[d]thiazol-6-yl)acetamide], the melting point is 179 to 181 °C. The IC50 at recombinant human NQO2 (setting [2]) amounted to 0.605 µM. Also, the half-inhibitory concentration (IC50) at recombinant human NQO2 (setting [1]) is 0.605 ± 0.06 µM.
Regarding `COc1ccc(-c2nc3ccc(C#N)cc3s2)c(OC)c1` [Compound 20, 2-(2,4-Dimethoxyphenyl)benzo[d]thiazole-6-carbonitrile], the melting point is 235 to 237 °C. Further, on recombinant human NQO2 (setting [1]), the IC50 was more than 100 µM.
In the case of `Oc1ccc(/C=C/c2cc(O)cc(O)c2)cc1` [Resveratrol, trans-3,4’,5-trihydroxystilbene], at NQO2, the Kd was 35 nM.
Molecule `COc1cc(OC)cc(-c2nc3ccc(I)cc3s2)c1` [Compound 9, 2-(3,5-Dimethoxyphenyl)-6-iodobenzo[d]thiazole] gave a melting point of 150 to 152 °C. In addition, the IC50 on recombinant human NQO2 (setting [1]) stood at 2.46 ± 0.01 µM.
The corresponding values for `COc1cc(OC)cc(C(=O)Nc2ccc3nc(-c4cc(OC)c(OC)c(OC)c4)sc3c2)c1` [Compound 51, 3,5-Dimethoxy-N-(2-(3,4,5-trimethoxyphenyl)benzo[d]thiazol-6-yl)benzamide] are 185 to 187 °C and 3.11 ± 0.03 µM.
The corresponding values for `COc1cc(-c2nc3ccc(F)cc3s2)cc(OC)c1OC` [Compound 45, 6-Fluoro-2-(3,4,5-trimethoxyphenyl)benzo[d]thiazole] are 156 to 158 °C and 0.717 ± 0.015 µM.
Molecule `COc1ccc(-c2nc3ccc(F)cc3s2)cc1` [Compound 54, 6-Fluoro-2-(4-methoxyphenyl)benzo[d]thiazole] showed a melting point of 127 to 130 °C. In addition, the IC50 at recombinant human NQO2 (setting [2]) is more than 100 µM. For the same molecule, the IC50 on recombinant human NQO2 (setting [1]) was more than 100 µM.
